Measured values published in ChEMBL document CHEMBL1268944, “The antiplasmodial activity of norcantharidin analogs” (Bioorg Med Chem Lett, 2010).

How the values were obtained:
Plasmodium falciparum [1] = assay: Antiplasmodial activity against chloroquine-sensitive Plasmodium falciparum D6 assessed as inhibition of parasite LDH activity after 72 hrs by malstat reagent method; assay type: functional, organism-based; conditions: D6, 72 h
Plasmodium falciparum [2] = assay: Antiplasmodial activity against chloroquine-resistant Plasmodium falciparum W2 assessed as inhibition of parasite LDH activity […] after 72 hrs by malstat reagent method; assay type: functional, organism-based; conditions: W2, 72 h
[3] = Inhibition of human PP1 expressed in Escherichia coli BL21
[4] = Inhibition of human PP2A expressed in Escherichia coli BL21
Plasmodium falciparum [5] = assay: Ratio of Norcantharidin IC50 to compound IC50 for chloroquine-resistant Plasmodium falciparum W2; assay type: functional
[6] = Inhibition of human PP1
Plasmodium falciparum [7] = assay: Ratio of Norcantharidin IC50 to compound IC50 for chloroquine-sensitive Plasmodium falciparum D6; assay type: functional
[8] = Inhibition of human PP2A

Row | SMILES | IC50 (Plasmodium falciparum [1]) | IC50 (Plasmodium falciparum [2]) | IC50 [3] | IC50 [4] | Ratio IC50 (Plasmodium falciparum [5]) | IC50 [6] | Ratio IC50 (Plasmodium falciparum [7]) | IC50 [8]
1 | C[C@@]12C(=O)OC(=O)[C@]1(C)[C@H]1CC[C@@H]2O1 [CANTHARIDIN] | 9 µM | 9 µM | 1.8 µM | 0.2 µM | – | – | – | –
2 | O=C1OC(=O)C2C3CCC(O3)C12 (centres undefined) [DEMETHYL-CANTHARIDIN] | 60 µM | 50 µM | 2 µM | 0.4 µM | – | – | – | –
3 | C=CCNC(=O)C1C(C(=O)O)[C@@H]2CC[C@H]1O2 (some centres undefined) | 3 µM | 3 µM | – | – | 20 | 40 µM | 20 | 10 µM
